{"source": "patent EP3797781A1", "about": "“USE OF EC-7072 AND SYNERGIC COMPOSITIONS THEREOF IN TREATMENT OF CHRONIC LYMPHOCYTIC LEUKEMIA” (priority 2019, dated 2021)", "system": "BCR signaling pathway", "assay": "Phosphoflow of BCR signaling nodes in isolated leukemia cells", "type": "cell-based, human", "method": "Protein phosphorylation levels were evaluated by phosphoflow. Briefly, isolated leukemia cells from patients with CLL were treated with 200 nM EC-7072 or DMSO for 8 or 12 hours. In some experiments, BCR signaling was activated with goat F(ab')2 anti-IgM antibody (10 µg/mL; SouthernBiotech) for 45 minutes. Right afterwards, cells were fixed with 1.8% paraformaldehyde for 10 minutes at RT and permeabilized with 90% ice-cold methanol for 25 minutes at 4 °C. Finally, cells were incubated with specific phospho-antibodies (p-SYK, p-BTK, p-ERK1/2 and p-H2AX from Biolegend, and p-PLCγ2, p-AKT, p-p65 NF-κB and p-STAT3 from BD Bioscience) for 30 minutes at RT and mean fluorescence intensity (MFI) was analyzed by flow cytometry.\nThe inhibition of the tonic BCR pathway by EC-7072 was evaluated by: • (i) incubating PBMCs from patients with CLL, following treatment with 200 nM EC-7072, for 8 hours. Surface expression of CD79A (Figure 7A), CD79B (Figure 7B) and IgM (Figure 7C) in leukemia cells (n = 5 - 6) was assessed by flow cytometry and the MFI was normalized to the control (DMSO) condition; • (ii) incubating isolated leukemia cells from patients with CLL (n = 10), following treatment with EC-7072 (200 nM), for 8 hours. Phosphorylation levels of p-SYK (Figure 7D), p-BTK (Figure 7E) and p-PLCy2 (Figure 7F) proteins and p-ERK1/2 (Figure 7G), p-AKT (Figure 7H), p-p65 NPκB (Figure 7I) and p-STAT3 (Figure 7J) were evaluated by phosphoflow and the MFI was normalized to the control (DMSO) from each individual patient; • (iii) incubating PBMCs from patients with CLL (n = 8), following treatment with EC-7072 (200 nM), for 8 hours. Viability was determined by DiOC6(3)/PI staining and normalized to the control (DMSO) condition for each individual patient to obtain the mean percentage of viable [DiOC6(3)^+] cells (Figure 7K); • (iv) incubating isolated CLL cells (n = 4) stimulated with CD40L (100 ng/mL) or IL-6 (40 ng/mL) for 15 minutes and detecting respective phosphorylation levels of p65 NF-κB (Figure 7L) and STAT3 (Figure 7M) by phosphoflow to obtain the mean MFI normalized to the control (DMSO) condition for each individual patient; • (v) incubating isolated leukemia cells from 3 patients with CLL, following treatment with 200 nM EC-7072, for 3, 8 and 12 hours. […]\nThe partial abrogation of EC-7072-induced cell death of primary CLL cells by activation of the BCR was evaluated by: • (i) incubating PBMCs from patients with CLL (n = 15), following treatment with EC-7072 (200 nM) in combination with α-IgM (10 µg/mL), for 24 hours. […]", "data": [{"compound": "CO[C@@H]([C@@H]1Cc2cc3cc(O[C@H]4C[C@@H](O[C@H]5C[C@@H](O)[C@H](O)[C@@H](C)O5)[C@H](O)[C@@H](C)O4)c(C)c(O)c3c(O)c2C(=O)[C@H]1O[C@H]1C[C@@H](O[C@H]2C[C@@H](O[C@H]3C[C@](C)(O)[C@H](O)[C@@H](C)O3)[C@@H](O)[C@@H](C)O2)[C@H](O)[C@@H](C)O1)[C@@H](O)C(C)=O", "note": "[EC-7072, mithramycin SK]", "values": [{"measurement": "amounts of p-AKT", "setting": "200 nM, 8 hours, n = 10", "value": "No marked changes"}, {"measurement": "levels of phosphorylated (p)-SYK, p-BTK and p-PLCγ2", "setting": "200 nM, 8 hours, n = 10", "value": "significant reduction"}, {"measurement": "phosphorylation levels of ERK1/2, p65 NF-κB and STAT3", "setting": "200 nM, 8 hours, n = 10", "value": "significant downregulation"}, {"measurement": "phosphorylation of ERK1/2, AKT, p65 NF-κB and STAT3 ensued by anti-IgM", "setting": "EC-7072 200 nM 8 hours, then α-IgM (10 µg/mL) 15 minutes", "value": "not significantly reverted"}]}]}
